Columns and labels:
[1] = tested on: primary AML; conditions: pharmacological interruption of ERK signaling; cited from earlier work
[2] = most polar organic solvents and water; cited from earlier work
[3] = tested on: HIV; conditions: cited from earlier work
[4] = tested on: primary AML cells; experiment: Primary AML cultures ex vivo: cell viability, apoptosis assays and Western analysis of ERK; type: cell-based, human; conditions: primary AML samples
Excerpt: In addition to protein kinase C and ERK activation, TPA is a known inducer of NF-κB, a pro-survival transcription factor often constitutively active in AML blasts and leukemic stem cells.

Question: For `COc1cccc(-c2cc(=O)c3ccccc3o2)c1N` [PD98059], which “primary AML survival” value [1] is on record?
Answer: decreased primary AML survival

Question: With `O=C(NOCC1CC1)c1ccc(F)c(F)c1Nc1ccc(I)cc1Cl` [PD 184352] as the compound, how does the “primary AML survival” value [1] read?
Answer: decreased primary AML survival

Question: With `CC1=C[C@H]2[C@@]3(O)[C@H](C)[C@@H](O)[C@]4(O)[C@H]([C@@H]3C=C(CO)C[C@]2(O)C1=O)C4(C)C` [Phorbol] as the compound, how does the solubility [2] read?
Answer: well soluble in most polar organic solvents and in water

Question: With `CC(=O)O[C@@]12C[C@@H](C)[C@@]3(O)[C@@H](C=C(CO)C[C@]4(O)C(=O)C(C)=C[C@@H]34)[C@@H]1C2(C)C` [Prostratin, 12-deoxyphorbol 13-acetate] as the compound, how does the “HIV induced cell killing and viral replication” value [3] read?
Answer: some effectiveness for inhibiting HIV induced cell killing and viral replication

Question: What about the “effect on chronically-infected cell lines” value [3] of the same compound?
Answer: little or no effect on chronically-infected cell lines

Question: What about the “viral expression in latently-infected cell lines” value [3] of the same compound?
Answer: activated viral expression in latently-infected cell lines

Question: For `N#CC(=C(/N)Sc1ccccc1N)/C(C#N)=C(\N)Sc1ccccc1N` [U0126], which “primary AML survival” value [1] is on record?
Answer: decreased primary AML survival

Question: With `C[C@@H]1C[C@H]2[C@@H]3CCC4=CC(=O)C=C[C@]4(C)[C@@]3(F)[C@@H](O)C[C@]2(C)[C@@]1(O)C(=O)CO` [dexamethasone, reference compound] as the compound, how does the “effect on TPA cytotoxicity” value [4] read?
Answer: enhance TPA cytotoxicity

From US9636317B2, “Compositions and methods of use of phorbol esters” (priority 2007, dated 2017)
